Test results: US20260335298A1, “PHARMACEUTICAL COMBINATION CONTAINING DONEPEZIL AND RIVASTIGMINE FOR PREVENTING, ALLEVIATING OR TREATING DEMENTIA OR COGNITIVE IMPAIRMENT, AND PREPARATION METHOD THEREFOR” (G2GBIO, INC., priority 2022, published 2026)

Assays:
[1] = tested on: AChE mRNA (SH-SY5Y cells); test: AChE mRNA expression in SH-SY5Y cell line (qRT-PCR, FIGS. 2 to 4); type: cell-based, human
Method: Specifically, the SH-SY5Y cell line was cultured in a 6-well plate (6×10^5/well) using high-glucose Dulbecco's modified Eagle medium (DMEM) added with 10% fetal bovine serum and penicillin-streptomycin. SH-SY5Y cells were treated with the donepezil at final concentrations of 10, 20, 30, 40 (15.2 μg/ml) μM, or the rivastigmine at 0.01, 0.1, 0.5, 1, 5 (1.25 μg/ml) μM and cultured for 24 hours, and then, a total RNA was extracted from each cell using TRIzol, and cDNA was synthesized using a SuperScriptIII cDNA synthesis kit. Quantitative real-time PCR (qRT-PCR) was performed using the synthesized cDNA and primers and SYBR Green in Table 3 below using QuantStudio 3. In order to confirm amplification and accumulation of a target gene in real time, the qRT-PCR was performed under a condition that a cycle of 95° C. for 15 seconds and 60° C. for 1 minute was reacted 40 times after an initial denaturation reaction was performed at 50° C. for 2 minutes and 95° C. for 10 minutes.
A gene expression level amplified by the Comparative Ct Method which is one of methods for quantifying a specific gene expression level was calculated, and analysis results are shown in FIGS. 2 to 4.
[Relational Expression of AChE mRNA Expression Level Analysis for Each Sample]
ΔCt value=Ct value of AChE in each sample−Ct value of reference gene (GAPDH) in the sample.
(Here, Ct refers to a cycle number in which amplification begins to increase clearly during a PCR process.)
Specifically, the SH-SY5Y cell line was cultured in a 6-well plate (6×10^5/well) using DMEM added with 10% fetal bovine serum and penicillin-streptomycin. Gene expression comparative analysis was performed by treating the SH-SY5Y cells with donepezil alone or with donepezil and rivastigmine in combination and performing qRT-PCR as in the previous experiment method.
Specifically, the gene expression comparative analysis was performed by treating the SH-SY5Y cells with donepezil 20 μM alone and with donepezil 20 μM and rivastigmine 0.1, 0.5, 1, and 5 μM as a final concentration in combination and performing qRT-PCR as in the previous experiment method.

AChE mRNA (APP-H4 cells) = test: AChE mRNA expression in APP-H4 cell line (qRT-PCR, FIGS. 5 and 6); type: cell-based, human; settings: 24 h
From the text: An APP-H4 cell line is known as a dementia model cell line in which an abnormal segment of Amyloid Precursor Protein (APP) is increased by β-secretase and Alzheimer's disease and hyperphosphorylation of a Tau protein are induced by introducing a Swedish mutation of APP into human neuroglioblastoma H4 cells. In order to re-verify the effect of combined administration of the donepezil and the rivastigmine on the AChE mRNA expression and the drug combination ratio confirmed through a previous study, APP-H4 cells were treated with the donepezil and the rivastigmine alone or in combination as active ingredients, and the AChE gene expression was analyzed.
Specifically, the APP-H4 cell line was cultured in DMEM including 10% fetal bovine serum and gentamycine. Gene expression comparative analysis was performed by treating cells with donepezil 50 (19 μg/ml) μM alone or with donepezil 50 μM and rivastigmine 1 or 5 (1.25 μg/ml) μM as a final concentration in combination and performing qRT-PCR as in the previous experiment method (primers are shown in Table 4 below).
APP-H4 cells were treated with the donepezil and the rivastigmine alone or in combination and cultured for 24 hours, and then the AChE mRNA expression level was measured by qRT-PCR method.

AChE = settings: patients taking donepezil in a long-term; cited from earlier work

| SMILES | AChE mRNA expression ([1]; 5 μM (1.9 μg/ml) donepezil alone, FIG. 3) | AChE mRNA expression ([1]; donepezil alone, beyond 20 μM (30, 40 μM), 24 h, FIG. 2) | AChE mRNA expression ([1]; donepezil alone, up to 20 μM, 24 h, FIG. 2) | AChE expression (AChE mRNA (APP-H4 cells); 50 μM donepezil, FIG. 6) | AChE activity and quantity (AChE) | AChE mRNA expression ([1]; rivastigmine alone, 0.01 to 5 μM, 24 h, FIG. 2) | AChE mRNA expression (AChE mRNA (APP-H4 cells); rivastigmine alone, 0.5, 1, or 10 μM, FIG. 5) |
| --- | --- | --- | --- | --- | --- | --- | --- |
| COc1cc2c(cc1OC)C(=O)C(CC1CCN(Cc3ccccc3)CC1)C2 (stereo not shown) [donepezil] | increased | no difference | dependently increased | increased | increases |  |  |
| CCN(C)C(=O)Oc1cccc([C@H](C)N(C)C)c1 [rivastigmine] |  |  |  |  |  | no statistically significant change was observed | no effect |
